Literature values, collected in patent US10875836B2, “Callyspongiolide, analogs thereof and uses thereof” (Purdue Research Foundation, priority 2016, dated 2020).

What was measured:
[1] = tested on: human Ramos B lymphocytes
[2] = tested on: human Jurkat J16 T lymphocytes
[3] = tested on: K562 cell line
[4] = tested on: A549 cell line

Compound | IC50 [1] | IC50 [2] | cytotoxicity [3] | cytotoxicity [4]
C[C@@H]1C/C=C\C(=O)O[C@H](/C=C/C#C/C=C/C(C)(C)[C@@H](O)c2cccc(O)c2Br)[C@@H](C)/C=C/[C@H](C)C[C@H](OC(N)=O)C1 [callyspongiolide] | 60 nM | 70 nM |  | 
callyazepin |  |  | moderate cytotoxicity | moderate cytotoxicity
